The test concerns the target T1, Pannexin-1 (rPanx1) (Rattus norvegicus, UniProt P60570).
T1 construct: gene Panx1; Rattus norvegicus Pannexin-1 cDNA in pRK5 (pRK5-rPanx1)
Description: whole-cell patch clamp of HEK-293T cells transfected with rat Panx1. It is filed as cell-based.

The text below walks through data of PMC11269731, “Pannexin-1 channel inhibition alleviates opioid withdrawal in rodents by modulating locus coeruleus to spinal cord circuitry” (Nature Communications, 2024).

T1 sequence (P60570 whole entry): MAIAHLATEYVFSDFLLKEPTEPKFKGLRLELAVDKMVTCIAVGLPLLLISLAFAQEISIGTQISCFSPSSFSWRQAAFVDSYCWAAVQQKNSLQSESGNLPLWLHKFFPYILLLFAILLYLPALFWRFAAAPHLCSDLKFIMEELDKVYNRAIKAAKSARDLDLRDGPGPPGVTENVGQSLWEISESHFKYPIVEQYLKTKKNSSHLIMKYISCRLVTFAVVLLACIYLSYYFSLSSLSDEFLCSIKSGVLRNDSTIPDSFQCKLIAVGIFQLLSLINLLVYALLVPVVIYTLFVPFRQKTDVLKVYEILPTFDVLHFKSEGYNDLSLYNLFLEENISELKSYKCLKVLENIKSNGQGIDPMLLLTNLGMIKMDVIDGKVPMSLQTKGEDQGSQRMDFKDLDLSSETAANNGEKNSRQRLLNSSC

As to `CCCN(CCC)S(=O)(=O)c1ccc(C(O)(C(F)(F)F)C(F)(F)F)cc1` [EG-2184, 4-(1,1,1,3,3,3-hexafluoro-2-hydroxypropan-2-yl)-N,N-dipropylbenzenesulfonamide], the IC50 (in general, the concentration that gives 50% inhibition) was 0.054 µM.
Then `CCCN(CCC)S(=O)(=O)c1ccc(C(=O)O)cc1` [probenecid], with 74.6 µM.
